Measurements: US8772323B2, “Benzoxazole- and tetrahydrobenzoxazole-substituted pyridazinones as GPR119 agonists” (Boehringer Ingelheim International GmbH, priority 2010, dated 2014)

How the values were obtained:
human GPR119 = human GPR119 (Homo sapiens (Human), UniProt Q8TDV5); test: AlphaScreen cAMP assay in Min-6/hGPR119 cells (GPR119 activation, intracellular cAMP); type: cell-based; details: MIN6 cells stably transfected with human GPR119; 45 minutes' incubation at RT; AlphaScreen cAMP Assay Kit
Outline: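 cAMP quantified by AlphaScreen after 45 min room-temperature compound exposure in HEPES/bicarbonate buffer, pH 7.4, containing 0.5 mM IBMX, 0.1% BSA and 1% DMSO final. Cells were Min-6 stably transfected with human GPR119, seeded 24 h beforehand.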

Sequence of human GPR119 (Q8TDV5 whole entry): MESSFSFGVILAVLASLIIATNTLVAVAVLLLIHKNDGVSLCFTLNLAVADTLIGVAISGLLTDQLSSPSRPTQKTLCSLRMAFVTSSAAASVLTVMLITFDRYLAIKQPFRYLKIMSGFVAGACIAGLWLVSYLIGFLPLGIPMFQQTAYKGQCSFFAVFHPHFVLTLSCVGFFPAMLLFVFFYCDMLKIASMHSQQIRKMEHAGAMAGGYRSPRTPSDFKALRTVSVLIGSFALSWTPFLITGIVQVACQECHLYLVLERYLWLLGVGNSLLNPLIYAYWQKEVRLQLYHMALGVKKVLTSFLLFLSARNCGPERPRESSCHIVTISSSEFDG

CCOC(=O)N1CCN(c2nc3ccc(C4=NNC(=O)CC4C)cc3o2)CC1 (stereo not shown) [Example 114, ethyl 4-[6-(4-methyl-6-oxo-1,4,5,6-tetrahydro-pyridazin-3-yl)-benzoxazol-2-yl]-piperazine-1-carboxylate]
melting point: 239 °C
EC50 (human GPR119): 2290 nM

CC1CC(=O)NN=C1c1ccc2nc(N3CCSCC3)oc2c1 (stereo not shown) [Example 113, 5-methyl-6-(2-thiomorpholin-4-yl-benzoxazol-6-yl)-4,5-dihydro-2H-pyridazin-3-one]
melting point: 218 °C
EC50 (human GPR119): 1900 nM

CC1CC(=O)NN=C1c1ccc2nc(-c3cccnc3)oc2c1 (stereo not shown) [Example 110, 5-methyl-6-(2-pyridin-3-yl-benzoxazol-6-yl)-4,5-dihydro-2H-pyridazin-3-one]
melting point: 218 °C
EC50 (human GPR119): 4540 nM

CC1CC(=O)NN=C1c1ccc2nc(-c3cccs3)oc2c1 (stereo not shown) [Example 106, 5-methyl-6-(2-thiophen-2-yl-benzoxazol-6-yl)-4,5-dihydro-2H-pyridazin-3-one]
melting point: 222 °C
EC50 (human GPR119): 120 nM

CC1CC(=O)NN=C1c1ccc2nc(-c3ccc(Cl)nc3Cl)oc2c1 (stereo not shown) [Example 120, 6-[2-(2,6-dichloro-pyridin-3-yl)-benzoxazol-6-yl]-5-methyl-4,5-dihydro-2H-pyridazin-3-one]
melting point: 268 °C
EC50 (human GPR119): 1340 nM

CC1CC(=O)NN=C1c1ccc2nc(N3CCNCC3)oc2c1 (stereo not shown) [Example 117, 5-methyl-6-(2-piperazin-1-yl-benzoxazol-6-yl)-4,5-dihydro-2H-pyridazin-3-one]
melting point: 213 °C
EC50 (human GPR119): 9390 nM

CC1CC(=O)NN=C1c1ccc2nc(N3CCOCC3)oc2c1 (stereo not shown) [Example 116, 5-methyl-6-(2-morpholine-1-yl-benzoxazol-6-yl)-4,5-dihydro-2H-pyridazin-3-one]
melting point: 209 °C
EC50 (human GPR119): 3450 nM

CC1CC(=O)NN=C1c1ccc2nc(-c3ccco3)oc2c1 (stereo not shown) [Example 108, 5-methyl-6-(2-furan-2-yl-benzoxazol-6-yl)-4,5-dihydro-2H-pyridazin-3-one]
melting point: 209 °C
EC50 (human GPR119): 346 nM

CC1CC(=O)NN=C1c1ccc2nc(-c3ccc(N4CCOCC4)nc3Cl)oc2c1 (stereo not shown) [Example 121, 6-[2-(2-chloro-6-morpholin-4-yl-pyridin-3-yl)-benzoxazol-6-yl]-5-methyl-4,5-dihydro-2H-pyridazin-3-one]
melting point: 236 °C
EC50 (human GPR119): 379 nM

CC1CC(=O)NN=C1c1ccc2nc(N3CCCCC3)oc2c1 (stereo not shown) [Example 115, 5-methyl-6-(2-piperidin-1-yl-benzoxazol-6-yl)-4,5-dihydro-2H-pyridazin-3-one]
melting point: 235 °C
EC50 (human GPR119): 1130 nM

CC1CC(=O)NN=C1c1ccc2nc(-c3ccc(N)nc3)oc2c1 (stereo not shown) [Example 109, 6-[2-(6-amino-pyridin-3-yl)-benzoxazol-6-yl]-5-methyl-4,5-dihydro-2H-pyridazin-3-one]
melting point: 293 °C
EC50 (human GPR119): 1410 nM
